Each block holds one compound with its values, some of them ahead of it. Active and inactive are the calls of the source. The rule behind the calls is not given here.
Experiments:
PANC-1 [1] = assay: Cytotoxicity against nutrient deprived human PANC1 cells assessed as induction of cell killing incubated for 24 hrs by WST-8 assay; format: functional
PANC-1 [2] = assay: Cytotoxicity against DMEM cultured human PANC1 cells assessed as reduction in cell viability at PC50 incubated for 24 hrs by WST-8 assay; format: cell-based; settings: panc-1, 24 h
Plasmodium falciparum [3] = assay: Antiprotozoal activity against chloroquine and pyrimethamine-resistant erythrocytic stage of Plasmodium falciparum K1 assessed as reduction in [3H]hypoxanthine incorporation preincubated for 48 hrs followed by [3H]hypoxanthine addition and measured after 24 hrs by liquid scintillation counting method; format: functional, organism-based
Plasmodium falciparum [4] = assay: Antiprotozoal activity against chloroquine-sensitive Plasmodium falciparum NF54; format: functional, organism-based
Trypanosoma cruzi = assay: Antiprotozoal activity against Trypanosoma cruzi Tulahuen C4 amastigotes infected in rat L6 cells incubated for 96 hrs by beta-galactosidase reporter gene assay; format: functional, organism-based
[5] = system: Trypanosoma brucei rhodesiense; assay: Antiprotozoal activity against Trypanosoma brucei rhodesiense STIB900 trypomastigotes incubated for 72 hrs by Alamar blue staining-based fluorometric analysis; format: functional, organism-based
Leishmania donovani = assay: Antiprotozoal activity against Leishmania donovani MHOM-ET-67/L82 axenic amastigotes incubated for 72 hrs by Alamar blue staining-based fluorometric analysis; format: functional, organism-based
L6 = assay: Cytotoxicity against rat L6 cells assessed as reduction in cell viability incubated for 72 hrs by Alamar blue staining-based fluorometric analysis
[6] = Selectivity index, ratio of IC50 for rat L6 cells to IC50 for chloroquine and pyrimethamine-resistant erythrocytic stage of Plasmodium falciparum K1; format: toxicity; settings: for selectivity ratio: L6 cells, read-out: Ratio IC50
[7] = Selectivity index, ratio of IC50 for rat L6 cells to IC50 for chloroquine-sensitive Plasmodium falciparum NF54; format: toxicity; settings: read-out: Ratio IC50
PANC-1 [8] = assay: Induction of cell morphological changes in nutrient deprived human PANC1 cells incubated for 24 hrs by acridine orange/ethidium bromide double staining-based fluorescence/phase contrast mode based EVOS FL digital microscopic analysis; format: functional
PANC-1 [9] = assay: Induction of cell morphological changes in human PANC1 cells assessed as loss of membrane integrity at 12.5 uM incubated for 24 hrs in nutrient deprived medium by acridine orange/ethidium bromide double staining-based fluorescence/phase contrast mode based EVOS FL digital microscopic analysis; format: functional
PANC-1 [10] = assay: Induction of cell death in nutrient deprived human PANC1 cells at 12.5 uM incubated for 24 hrs by acridine orange/ethidium bromide double staining-based fluorescence/phase contrast mode based EVOS FL digital microscopic analysis; format: functional
PANC-1 [11] = assay: Induction of cell morphological changes in nutrient deprived human PANC1 cells assessed as cell swelling at 25 uM incubated for 24 hrs by acridine orange/ethidium bromide double staining-based fluorescence/phase contrast mode based EVOS FL digital microscopic analysis; format: functional
PANC-1 [12] = assay: Induction of cell morphological changes in nutrient deprived human PANC1 cells assessed as cell rounding at 25 uM incubated for 24 hrs by acridine orange/ethidium bromide double staining-based fluorescence/phase contrast mode based EVOS FL digital microscopic analysis; format: functional
[13] = Trypanosoma cruzi, Tulahuen C4, L6, 96 h
[14] = Trypanosoma brucei, STIB900, 72 h
[15] = Leishmania donovani, MHOM-ET-67/L82, 72 h

Compound: COc1cc(C[C@H]2C(=O)OC[C@@H]2Cc2ccc(OC)c(OC)c2)ccc1O [ARCTIGENIN]
PC50 (PANC-1 [1]): 0.8 µM
Activity (PANC-1 [2]): Non-Toxic

Compound: COc1c(-c2ccc(O)c3c(OC)cc(C)cc23)c(O)cc2c1[C@H](C)N[C@H](C)C2
Activity (PANC-1 [1]): Dose-dependent effect
PC50 (PANC-1 [1]): 33.4 µM
Activity (PANC-1 [2]): Non-Toxic

Compound: COc1c(-c2ccc(OC)c3c(OC)cc(C)cc23)c(O)cc2c1[C@@H](C)N[C@H](C)C2 (single isomer, unassigned; atropisomer) [listing 1 of 2 here]
IC50 (Plasmodium falciparum [3]): 1.6 µM
IC50 (Plasmodium falciparum [4]): 6.3 µM
IC50 (Trypanosoma cruzi): 73.4 µM
IC50 [5]: 9.8 µM
IC50 (Leishmania donovani): 170 µM
IC50 (L6; l6): 9.1 µM
Ratio IC50 [6]: 5.6
PC50 (PANC-1 [1]): 12.5 µM
Activity (PANC-1 [2]): Non-Toxic

Compound: COc1c2c(cc(O)c1-c1ccc(O)c3c(OC)cc(C)cc13)C[C@@H](C)N=C2C
Activity (PANC-1 [1]): Dose-dependent effect
PC50 (PANC-1 [1]): 37.8 µM
Activity (PANC-1 [2]): Non-Toxic

Compound: COc1cc(O)c(-c2cc(-c3cc(-c4c(O)cc5c(c4OC)[C@H](C)N[C@H](C)C5)c4cc(C)cc(OC)c4c3O)c(O)c3c(OC)cc(C)cc23)c2c1[C@H](C)N[C@H](C)C2
IC50 (Plasmodium falciparum [3]; Plasmodium falciparum, K1): 0.0063 µM
IC50 (L6; Rattus norvegicus, L6, 72 h): 6 µM
selectivity ratio [6]: 1000

Compound: COc1c(-c2ccc(OC)c3c(OC)cc(C)cc23)c(O)cc2c1[C@@H](C)N[C@H](C)C2 (single isomer, unassigned; atropisomer) [listing 2 of 2 here]
Activity (PANC-1 [1]): Dose-dependent effect

Compound: COc1c(-c2ccc(OC)c3c(OC)cc(C)cc23)c(O)cc2c1[C@@H](C)N[C@H](C)C2 [listing 1 of 2 here]
IC50 (Plasmodium falciparum [3]; Plasmodium falciparum, K1): 1.4 µM
IC50 (Plasmodium falciparum [4]; Plasmodium falciparum, NF54): 4.9 µM
IC50 (Trypanosoma cruzi; [13]): 123 µM
IC50 [5, 14]: 7.8 µM
IC50 (Leishmania donovani): 53.4 µM
IC50 (L6; l6): 20.9 µM
Ratio IC50 [6]: 15
PC50 (PANC-1 [1]): 30.6 µM

Compound: COc1cc2c(c(O)c1-c1ccc(OC)c3c(OC)cc(C)cc13)[C@@H](C)N[C@H](C)C2
IC50 (Plasmodium falciparum [3]; Plasmodium falciparum, K1): 8.2 µM
IC50 (Plasmodium falciparum [4]; Plasmodium falciparum, NF54): 22.2 µM
IC50 (Trypanosoma cruzi; [13]): 225 µM
IC50 [5, 14]: 106 µM
IC50 (Leishmania donovani; [15]): > 250 µM
IC50 (L6; Rattus norvegicus, L6, 72 h): > 250 µM
selectivity ratio [6]: > 30
Activity (PANC-1 [1]): Dose-dependent effect
PC50 (PANC-1 [1]): 60.4 µM
Activity (PANC-1 [2]): Non-Toxic

IC50 (Plasmodium falciparum [4]; Plasmodium falciparum, NF54): 0.84 µM
IC50 (Trypanosoma cruzi; [13]): 102 µM
IC50 [5, 14]: 9.4 µM
Compound: COc1c(-c2ccc(O)c3c(OC)cc(C)cc23)c(O)cc2c1[C@@H](C)N[C@H](C)C2
IC50 (Leishmania donovani; [15]): > 250 µM
IC50 (L6; Rattus norvegicus, L6, 72 h): 47.7 µM
selectivity ratio [7]: 56.8
Activity (PANC-1 [1]): Dose-dependent effect
PC50 (PANC-1 [1]): 9.9 µM
Activity (PANC-1 [8]): Dose-dependent effect
Activity (PANC-1 [9]): Active
Activity (PANC-1 [10]): Active
Activity (PANC-1 [11]): 100%
Activity (PANC-1 [12]): 100%
Activity (PANC-1 [2]): Non-Toxic

IC50 (Trypanosoma cruzi; [13]): 3.6 µM
Compound: O=C(Cn1ccnc1[N+](=O)[O-])NCc1ccccc1 [BENZNIDAZOLE]

Compound: COc1c(-c2ccc(OC)c3c(OC)cc(C)cc23)c(O)cc2c1[C@@H](C)N[C@H](C)C2 [listing 2 of 2 here]
Activity (PANC-1 [1]): Dose-dependent effect

Reference: ChEMBL document CHEMBL4414627, “Ealamines A-H, a Series of Naphthylisoquinolines with the Rare 7,8'-Coupling Site, from the Congolese Liana Ancistrocladus ealaensis, Targeting Pancreatic Cancer Cells” (J Nat Prod, 2019)
